Assay results published in US11078184B2, “Dexrabeprazole sodium compound and pharmaceutical composition thereof” (JIANGSU AOSAIKANG PHARMACEUTICAL CO., LTD., priority 2017, dated 2021).

Tests used:
Type in all cases: physicochemical
[1] = Determination of hygroscopic moisture; settings: 25° C. thermostatic drier over saturated ammonium chloride solution, sodium salt
Method: Determination of hygroscopic moisture: 25±+1° C. Thermostatic Drier (with a saturated solution of ammonium chloride being placed at bottom of the drier).

[2] = Test of influence factors (stability: appearance and relevant materials by HPLC)
Method: Chromatographic conditions of relevant materials: Chromatographic column: charged with octadecylsilane bonded silica as a filler (Agilent ZORBAX Extend C18, 250×4.6 mm, […]); Mobile phase A: 0.025 mol/L of phosphate solution (the pH of 0.025 mol/L of dipotassium phosphate solution was adjusted to 7.2 with phosphoric acid)-acetonitrile (95:5); Mobile phase B: methanol; Mobile phase C: acetonitrile; A linear gradient elution is carried out in accordance with the following table. Detection wavelength: 280 nm, 220 nm (for impurity H) Flowrate: 1.0 ml/min Column temperature: 25° C. Sample size: 5 μl Diluent: the pH of 0.1 mol/L of dipotassium phosphate solution was adjusted to 11.3 with 2 mol/L potassium hydroxide solution-methanol (45:55). Crystal forms A, B, and C (each 100 mg) were placed under different conditions, and sampled at Days 0, 10, 20, and 30 for detecting their characters and relevant materials, respectively.

[3] = High temperature / grinding test, change of crystal form by XRPD; settings: sodium salt
Description: Crystal forms A and C of dexrabeprazole sodium were placed under different conditions as listed in Table 5 below, and sampled for XRPD detection to investigate the change of crystal forms.

[4] = Determination of angle of repose (powder flowability); settings: average of three determinations; sodium salt
Method: Determination of angle of repose: BT-1001 Intelligent Powder Characteristic Tester (Dandong Bettersize Instrument Co., Ltd.)
Angle of repose is a key characteristic of the frictional resistance between powder particles, and is an important parameter for characterizing the powder flowability. The angle of repose is determined by measuring the height and the base radius of a cone formed by powders, with a calculation equation as follows: tan(α)=height/radius. The angle of reposes of crystal forms A and B were measured and compared for their difference, respectively.

[5] = Tap density, bulk density, compression coefficient and Hausner ratio; settings: sodium salt
Method: The compression coefficient and the Hausner ratio closely related thereto are simple and fast methods for predicting the powder property, and are often used as the index for characterizing the powder flowability. Crystal forms A and B were sampled for measuring the tap density and bulk density of powder of different crystal forms, and then the compression coefficient and the Hausner ratio were calculated. Wherein, the compression coefficient (%)=[(the tap density−the bulk density)/the tap density×100%; and the Hausner ratio=the tap density/the bulk density.

[6] = High humidity, RH75 ± 5%, Day 0
[7] = High humidity, RH75 ± 5%, Day 0, sodium salt
[8] = High humidity, RH75 ± 5%, Day 10, sodium salt
[9] = High humidity, RH75 ± 5%, Day 20, sodium salt
[10] = High humidity, RH75 ± 5%, Day 30, sodium salt
[11] = High temperature, 40° C., Day 0
[12] = High temperature, 40° C., Day 0, sodium salt
[13] = High temperature, 40° C., Day 10
[14] = High temperature, 40° C., Day 10, sodium salt
[15] = High temperature, 40° C., Day 20
[16] = High temperature, 40° C., Day 20, sodium salt
[17] = High temperature, 40° C., Day 30
[18] = High temperature, 40° C., Day 30, sodium salt
[19] = Light exposure, 4500 ± 500 Lx, Day 0
[20] = Light exposure, 4500 ± 500 Lx, Day 0, sodium salt
[21] = Light exposure, 4500 ± 500 Lx, Day 10
[22] = Light exposure, 4500 ± 500 Lx, Day 10, sodium salt
[23] = Light exposure, 4500 ± 500 Lx, Day 20
[24] = Light exposure, 4500 ± 500 Lx, Day 20, sodium salt
[25] = Light exposure, 4500 ± 500 Lx, Day 30
[26] = Light exposure, 4500 ± 500 Lx, Day 30, sodium salt

COCCCOc1ccnc(C[S@@+]([O-])c2nc3ccccc3[n-]2)c1C.[Na+] [Amorphous form, R-(+)-2-{[4-(3-methoxypropoxy)-3-methylpyrid-2-yl]methylsulfinyl}-1H-benzimidazole sodium salt, reference compound]
Hygroscopic moisture (%) ([1]; 0 h): 6.60% | Hygroscopic moisture (%) ([1]; 24 h): 21.60% | Hygroscopic moisture (%) ([1]; 48 h): 21.81%

COCCCOc1ccnc(C[S@@+]([O-])c2nc3ccccc3[n-]2)c1C.[Na+] [Crystal form A, R-(+)-2-{[4-(3-methoxypropoxy)-3-methylpyrid-2-yl]methylsulfinyl}-1H-benzimidazole sodium salt, reference compound]
Hygroscopic moisture (%) ([1]; 0 h): 4.66% | Hygroscopic moisture (%) ([1]; 24 h): 5.10% | Hygroscopic moisture (%) ([1]; 48 h): 5.72% | Appearance character [2, 6]: Off-white | Relevant materials: Maximum individual impurity (%) [2, 7]: 0.037% | Relevant materials: Total impurity (%) [2, 7]: 0.098% | Appearance character ([2]; High humidity, RH75 ± 5%, Day 10): Yellow | Relevant materials: Maximum individual impurity (%) [2, 8]: 0.029% | Relevant materials: Total impurity (%) [2, 8]: 0.152% | Appearance character ([2]; High humidity, RH75 ± 5%, Day 20): Yellow | Relevant materials: Maximum individual impurity (%) [2, 9]: 0.200% | Relevant materials: Total impurity (%) [2, 9]: 0.483% | Appearance character ([2]; High humidity, RH75 ± 5%, Day 30): Yellow | Relevant materials: Maximum individual impurity (%) [2, 10]: 0.287% | Relevant materials: Total impurity (%) [2, 10]: 1.495% | Appearance character [2, 11]: Off-white | Relevant materials: Maximum individual impurity (%) [2, 12]: 0.037% | Relevant materials: Total impurity (%) [2, 12]: 0.098% | Appearance character [2, 13]: Off-white | Relevant materials: Maximum individual impurity (%) [2, 14]: 0.037% | Relevant materials: Total impurity (%) [2, 14]: 0.100% | Appearance character [2, 15]: Off-white | Relevant materials: Maximum individual impurity (%) [2, 16]: 0.021% | Relevant materials: Total impurity (%) [2, 16]: 0.145% | Appearance character [2, 17]: Off-white | Relevant materials: Maximum individual impurity (%) [2, 18]: 0.019% | Relevant materials: Total impurity (%) [2, 18]: 0.210% | Appearance character [2, 19]: Off-white | Relevant materials: Maximum individual impurity (%) [2, 20]: 0.037% | Relevant materials: Total impurity (%) [2, 20]: 0.098% | Appearance character [2, 21]: Off-white | Relevant materials: Maximum individual impurity (%) [2, 22]: 0.077% | Relevant materials: Total impurity (%) [2, 22]: 0.133% | Appearance character [2, 23]: Off-white | Relevant materials: Maximum individual impurity (%) [2, 24]: 0.099% | Relevant materials: Total impurity (%) [2, 24]: 0.298% | Appearance character [2, 25]: Off-white | Relevant materials: Maximum individual impurity (%) [2, 26]: 0.123% | Relevant materials: Total impurity (%) [2, 26]: 0.396% | Comparison of XRPD fit charts (change of crystal form) ([3]; grinded in a mortar for 5 min): partially converted to an amorphous form | Stability of the crystal form at a high temperature ([3]; high temperature, XRPD): unstable at a high temperature | Determination of angle of repose, Average [4]: Average: 58.89° | Bulk density [5]: 0.267 g · cm^−3 | Tap density [5]: 0.450 g · cm^−3

COCCCOc1ccnc(C[S@@+]([O-])c2nc3ccccc3[n-]2)c1C.[Na+] [Crystal form B, R-(+)-2-{[4-(3-methoxypropoxy)-3-methylpyrid-2-yl]methylsulfinyl}-1H-benzimidazole sodium salt]
Hygroscopic moisture (%) ([1]; 0 h): 4.72% | Hygroscopic moisture (%) ([1]; 24 h): 5.18% | Hygroscopic moisture (%) ([1]; 48 h): 5.75% | Appearance character [2, 6]: Off-white | Relevant materials: Maximum individual impurity (%) [2, 7]: 0.029% | Relevant materials: Total impurity (%) [2, 7]: 0.088% | Appearance character [2, 8]: Yellow | Relevant materials: Maximum individual impurity (%) [2, 8]: 0.017% | Relevant materials: Total impurity (%) [2, 8]: 0.141% | Appearance character [2, 9]: Yellow | Relevant materials: Maximum individual impurity (%) [2, 9]: 0.189% | Relevant materials: Total impurity (%) [2, 9]: 0.426% | Appearance character [2, 10]: Yellow | Relevant materials: Maximum individual impurity (%) [2, 10]: 0.280% | Relevant materials: Total impurity (%) [2, 10]: 1.300% | Appearance character [2, 11]: Off-white | Relevant materials: Maximum individual impurity (%) [2, 12]: 0.029% | Relevant materials: Total impurity (%) [2, 12]: 0.088% | Appearance character [2, 13]: Off-white | Relevant materials: Maximum individual impurity (%) [2, 14]: 0.028% | Relevant materials: Total impurity (%) [2, 14]: 0.090% | Appearance character [2, 15]: Off-white | Relevant materials: Maximum individual impurity (%) [2, 16]: 0.015% | Relevant materials: Total impurity (%) [2, 16]: 0.126% | Appearance character [2, 17]: Off-white | Relevant materials: Maximum individual impurity (%) [2, 18]: 0.012% | Relevant materials: Total impurity (%) [2, 18]: 0.190% | Appearance character [2, 19]: Off-white | Relevant materials: Maximum individual impurity (%) [2, 20]: 0.029% | Relevant materials: Total impurity (%) [2, 20]: 0.088% | Appearance character [2, 21]: Off-white | Relevant materials: Maximum individual impurity (%) [2, 22]: 0.059% | Relevant materials: Total impurity (%) [2, 22]: 0.120% | Appearance character [2, 23]: Off-white | Relevant materials: Maximum individual impurity (%) [2, 24]: 0.155% | Relevant materials: Total impurity (%) [2, 24]: 0.263% | Appearance character [2, 25]: Off-white | Relevant materials: Maximum individual impurity (%) [2, 26]: 0.100% | Relevant materials: Total impurity (%) [2, 26]: 0.360% | Stability compared with crystal form A ([2]; light exposure, high temperature, and high humidity): comparable to that of crystal form A | Determination of angle of repose, Average [4]: Average: 36.35° | Compression coefficient ([5]; (tap density − bulk density)/tap density × 100%): 22.72% | Bulk density [5]: 0.398 g · cm^−3 | Tap density [5]: 0.515 g · cm^−3 | Hausner ratio ([5]; tap density/bulk density): 1.29
